Measurements taken from paper PMC6906232 (The Journal of pharmacy and pharmacology, 2019).

Target: D184A mutant CB1 receptor (Homo sapiens, UniProt P21554, D184A)
Test: Methanandamide competition binding with [3H]CP55940 as tracer
Conditions: [3H]CP55940 tracer

Sequence of D184A mutant CB1 receptor (P21554 whole entry D184A): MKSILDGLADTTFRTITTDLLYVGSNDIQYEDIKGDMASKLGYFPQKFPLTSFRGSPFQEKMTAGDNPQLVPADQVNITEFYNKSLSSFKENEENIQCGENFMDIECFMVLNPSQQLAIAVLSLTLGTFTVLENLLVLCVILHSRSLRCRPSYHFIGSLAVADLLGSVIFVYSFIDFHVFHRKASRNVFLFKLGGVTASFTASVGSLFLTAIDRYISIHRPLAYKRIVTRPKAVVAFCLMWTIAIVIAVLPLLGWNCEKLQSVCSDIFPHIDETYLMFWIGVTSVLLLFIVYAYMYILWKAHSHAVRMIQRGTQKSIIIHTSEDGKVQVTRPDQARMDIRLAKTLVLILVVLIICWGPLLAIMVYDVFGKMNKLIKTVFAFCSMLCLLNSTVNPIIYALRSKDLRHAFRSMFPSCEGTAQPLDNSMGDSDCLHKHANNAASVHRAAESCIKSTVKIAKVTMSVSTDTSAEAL

**Q.** For CCCCC/C=C\C/C=C\C/C=C\C/C=C\CCCC(=O)N[C@H](C)CO [methanandamide], which methanandamide binding (agonist alone, no modulator) is on record?
**A.** did not bind

**Q.** And the methanandamide binding (with 1 μM PSNCBAM-1)?
**A.** binding was restored
